This note sets out measurements from patent publication US6489166B1, “Plant regeneration method for mature seed-derived callus in zoysiagrass” (Korea Kumho Petrochemical Co., Ltd., priority 2001, dated 2002).

Series [1] concerns Type I calli derived from mature seeds of zoysiagrass. The note with it: for Calli with green shoot (%) / Number of shoots per callus lump / Shoots over 2 mm (%): Type I calli, 2 weeks.
Procedure: To examine the effects of various sugars on the plant regeneration efficiency from calli, the type I calli were dissected into lumps with a diameter of 2 mm and grown on the MS media containing 1 mg/L TDZ and 3% (w/v) fructose, galactose, glucose, maltose, or sucrose. For each treatment, 3 MS plates, each with 25 calli, were used. […] To determine the optimal concentration of maltose, the type I calli were grown on the MS media supplemented with various concentrations of maltose at 1.5, 3.0, 4.5, 6.0, 7.5, or 9%.
The effects of different sugars on the plant regeneration efficiency from calli were examined using the shoot induction media (SIM) supplemented with different sugars.
Type I calli were cultured on the MS medium containing 1 mg/L TDZ for 2 weeks. Each value in the second column represents a mean calculated from 25 calli per each experiment. Each value in the third column represents a mean calculated from 10 calli for each experiment.
Type I calli were cultured on the MS medium containing 1 mg/L TDZ and various concentrations of maltose for 2 weeks.
Series [2] has as its system callus derived from mature seeds of zoysiagrass. Kind of series: Morphology (types I-IV) of callus induced with growth hormone combinations. The format is cell-based, Zoysia japonica Steud. The note with it: 6-benzylaminopurine 0 mg/L, MS, 3 months. Here is the method: (§1) To examine the effects of plant growth hormones on the callus induction efficiency and the callus morphology, sterilized seeds were placed and cultured on the MS plates supplemented with 4 mg/L thiamine-HCl and 100 mg/L α-ketoglutaric acid. The MS plates, each with a diameter of 9 cm, were further supplemented with various amounts of 2,4-dichlorophenoxyacetic acid (0, 1, 2, 4, 8 mg/L) and 6-benzylaminopurine (0, 0.02, 0.2, 2, 4 mg/L). One hundred seeds were grown per each MS plate, and 3 plates were used for each treatment group. After three months, the number of seeds from which calli had been induced was counted. For the morphological classification of calli, calli were induced and grown on the MS media supplemented with 6-benzylaminopurine and 2,4-dichlorophenoxyacetic acid under the identical condition as described above for three months. They could be morphologically classified into four distinct groups (I-IV), based on the callus morphology, color, and rigidity.
Calli induced on the MS media supplemented with different concentration combinations of 2,4-dichlorophenoxyacetic acid and 6-benzylaminopurine were morphologically and physiologically analysed. Four distinct callus types (types I to IV) could be apparently discriminated by callus color, morphology, and rigidity (FIG. 1).
Seeds were plated on the MS media containing 4 mg/L thiamine-HCl, 100 mg/L α-ketoglutaric acid, and different concentration combinations of 2,4-dichlorophenoxyacetic acid and 6-benzylaminopurine for 3 months. Callus morphologies were rated by; type I: with yellow and differentiated structure, type II: with white, non-friable, and compact structure, type III: with yellow, friable, and compact structure, Type IV: with whitish yellow, friable, soft, and watery appearance. Type I˜III represents the sum of the numbers of types I to III.

In series [3] the test system is mature seeds of zoysiagrass. Kind of series: Callus induction from mature seeds on MS media with growth hormone combinations. The format is cell-based, Zoysia japonica Steud. The note with it: for Callus producing seeds (%) / Number of callus producing seeds: 6-benzylaminopurine 0 mg/L, MS, 3 months. As for the experimental part:
Seeds of zoysiagrass (Zoysia japonica Steud.), from which seed coats were first removed, were sterilized by soaking in 70% ethyl alcohol for 1 min and subsequently in 5% sodium hypochlorite solution supplemented with 0.001% (v/v) Tween 20 for 15 min. The sterilized seeds were then thoroughly rinsed with sterilized distilled water 3-4 times. They were then germinated and grown for 2 weeks on the N6 media (pH 5.8) containing 1 mg/L 2,4-dichlorophenoxyacetic acid, 3% sucrose, and 0.2% gelite and subject to callus induction. The callus induction and growth was carried out in a controlled environment culture room set at 26° C. and 70% humidity in the dark.
as §1
To investigate the effects of plant growth hormones on the callus induction, the mature seed-derived callus induction rates were measured on the MS media supplemented with different amounts of 2,4-dichlorophenoxyacetic acid and 6-benzylaminopurine after grown for three months.
Seeds were plated and grown on the MS media containing 4 mg/L thiamine-HCl, 100 mg/L α-ketoglutaric acid, and different concentration combinations of 2,4-dichlorophenoxyacetic acid and 6-benzylaminopurine for 3 months.

Series [4] has as its system Type I calli derived from mature seeds of zoysiagrass. Kind of series: Effects of cytokinins on shoot induction from callus. The class given is cell-based, Zoysia japonica Steud. The note with it: 44 Type I calli tested, MS with 30 g/L maltose, 2 weeks.
Series [5] has the same test system. Described as above. The class given is cell-based, Zoysia japonica Steud. The note with it: for Number of shoots over 5 mm / Number of shoots per callus lump: Type I calli, MS with 30 g/L maltose, 2 weeks. Here is the method: The media were additionally supplemented with 1 or 4 mg/L of kinetin, 6-benzylaminopurine, or TDZ. Each treatment consisted of 3 MS plates, each with 16 calli.

The mark [6] stands for this setting: maltose 15 g/L, MS with 1 mg/L TDZ.
The mark [7] stands for this setting: maltose 30 g/L, MS with 1 mg/L TDZ.
Setting [8] is: maltose 45 g/L, MS with 1 mg/L TDZ.
The mark [9] stands for this setting: maltose 60 g/L, MS with 1 mg/L TDZ.
[10] abbreviates: maltose 75 g/L, MS with 1 mg/L TDZ.
[11] abbreviates: maltose 90 g/L, MS with 1 mg/L TDZ.
The mark [12] stands for this setting: sugar 30 g/L, MS medium with 1 mg/L TDZ.
[13] abbreviates: 2,4-dichlorophenoxyacetic acid 1 mg/L.
[14] abbreviates: 2,4-dichlorophenoxyacetic acid 2 mg/L.
Setting [15] is: 2,4-dichlorophenoxyacetic acid 4 mg/L.
Where [16] appears, read: 2,4-dichlorophenoxyacetic acid 8 mg/L.

Each structure is given as a SMILES string. Read-outs that look alike come from different tables or passages of the source.

In the case of `OC[C@H]1O[C@H](O[C@H]2[C@H](O)[C@@H](O)C(O)O[C@@H]2CO)[C@H](O)[C@@H](O)[C@@H]1O` (mixture of isomers) [Maltose, maltose], the “Colour of leaf and stem margins of regenerated plants” value in series [1] is “exhibited color caused by accumulation of anthocyanin-related pigments”. Besides, the “Physical stress on cultured cells (anthocyanin accumulation in regenerated shoots)” value in series [1] is “confers a physical stress on the cultured cells”. In addition, the “Calli with green shoot (%)” value in series [1] (setting [6]) is recorded as 37.3%; in series [1] (setting [7]), 36.0%; in series [1] (setting [8]), 32.0%; in series [1] (setting [9]), 29.3%; in series [1] (setting [10]), 30.7%; in series [1] (setting [11]) it was 28.0%. Further, the “Calli with green shoot (%)” value in series [1] (setting [12]) is reported as 33.3 ± 2.7%. Also, the “Number of shoots per callus lump” value was 9.9 ± 0.1 in series [1] (setting [6]); 12.9 ± 1.2 in series [1] (setting [7]); 10.2 ± 1.3 in series [1] (setting [8]); 4.9 ± 0.6 in series [1] (setting [9]); 8.3 ± 0.9 in series [1] (setting [10]); 2.5 ± 0.3 in series [1] (setting [11]). The “Number of shoots per callus lump” value in series [1] (setting [12]) came to 9.4 ± 0.3. Besides, the “Shoots over 2 mm (%)” value in series [1] (setting [6]) was found to be 45.2 ± 3.4%; in series [1] (setting [7]), 51.4 ± 3.9%; in series [1] (setting [8]), 32.1 ± 3.6%; in series [1] (setting [9]), 14.5 ± 5.5%; in series [1] (setting [10]), 27.3 ± 4.0%; in series [1] (setting [11]) it was 6.7 ± 0.2%. Further, in series [1] (setting [12]), the “Shoots over 2 mm (%)” value is given as 46.4 ± 5.0%.
Regarding `O=C(O)COc1ccc(Cl)cc1Cl` [2,4-dichlorophenoxyacetic acid], in series [2] (setting [13]), the “Calli Type I˜III (sum of types I to III) (%)” value (“Calli Type I˜III … (%)” for short) came out at 8.5%, the “Calli showing Type I morphology (%)” value is listed as 4.3%, the “Calli showing Type II morphology (%)” value is reported as 0 (0) % and the “Calli showing Type III morphology (%)” value was 4.3%. In addition, in series [2] (setting [13]), the “Calli showing Type IV morphology (%)” value is 91.5%, the “Number of calli Type I˜III (sum of types I to III)” value (“Number of calli Type I˜III” below) stood at 4, the “Number of calli showing Type I morphology” value is listed as 2 and the “Number of calli showing Type II morphology” value is given as 0 (0). Also, in series [2] (setting [13]), the “Number of calli showing Type III morphology” value came to 2 and the “Number of calli showing Type IV morphology” value amounted to 43. In series [2] (setting [14]), the “Calli Type I˜III … (%)” value was 5.6%, the “Calli showing Type I morphology (%)” value is 0 (0) %, the “Calli showing Type II morphology (%)” value is 0 (0) % and the “Calli showing Type III morphology (%)” value was 5.6%. In series [2] (setting [14]), the “Calli showing Type IV morphology (%)” value is reported as 94.4%, the “Number of calli Type I˜III” value came to 1, the “Number of calli showing Type I morphology” value is recorded as 0 (0) and the “Number of calli showing Type II morphology” value is given as 0 (0). Also, in series [2] (setting [14]), the “Number of calli showing Type III morphology” value was determined as 1 and the “Number of calli showing Type IV morphology” value was found to be 17. In addition, in series [2] (setting [15]), the “Calli Type I˜III … (%)” value was found to be 5.3%, the “Calli showing Type I morphology (%)” value was 0 (0) %, the “Calli showing Type II morphology (%)” value is 0 (0) % and the “Calli showing Type III morphology (%)” value came out at 5.3%. In series [2] (setting [15]), the “Calli showing Type IV morphology (%)” value is reported as 94.7%, the “Number of calli Type I˜III” value came out at 1, the “Number of calli showing Type I morphology” value is 0 (0) and the “Number of calli showing Type II morphology” value is listed as 0 (0). Moreover, in series [2] (setting [15]), the “Number of calli showing Type III morphology” value was found to be 1 and the “Number of calli showing Type IV morphology” value came out at 18. For the same molecule, in series [2] (setting [16]), the “Calli Type I˜III … (%)” value is listed as 0 (0) %, the “Calli showing Type I morphology (%)” value is recorded as 0 (0) %, the “Calli showing Type II morphology (%)” value is listed as 0 (0) % and the “Calli showing Type III morphology (%)” value is listed as 0 (0) %. In addition, in series [2] (setting [16]), the “Calli showing Type IV morphology (%)” value was 100%, the “Number of calli Type I˜III” value is 0 (0), the “Number of calli showing Type I morphology” value was 0 (0) and the “Number of calli showing Type II morphology” value was 0 (0). Moreover, in series [2] (setting [16]), the “Number of calli showing Type III morphology” value is given as 0 (0) and the “Number of calli showing Type IV morphology” value was determined as 38. Moreover, in series [3] (setting [13]), the “Callus producing seeds (%)” value was determined as 15.5% and the “Number of callus producing seeds” value is given as 47. In addition, in series [3] (setting [14]), the “Callus producing seeds (%)” value stood at 10.7% and the “Number of callus producing seeds” value came out at 18. In addition, in series [3] (setting [15]), the “Callus producing seeds (%)” value is given as 15.7% and the “Number of callus producing seeds” value came out at 19. Moreover, in series [3] (setting [16]), the “Callus producing seeds (%)” value is reported as 11.1% and the “Number of callus producing seeds” value is on record as 38. Also, in series [3] (MS media with higher than 4 mg/L of the hormone), the “Fate of induced calli” value was “the calli became brownish as they grew and eventually died”.
On to `O=C(CO)[C@@H](O)[C@H](O)[C@H](O)CO` [Fructose, fructose], for which, in series [1] (setting [12]), the “Calli with green shoot (%)” value worked out at 17.3 ± 2.7%, the “Number of shoots per callus lump” value is reported as 4.4 ± 0.8 and the “Shoots over 2 mm (%)” value came out at 12.6 ± 3.0%.
In the case of `O=C[C@H](O)[C@@H](O)[C@@H](O)[C@H](O)CO` [Galactose, galactose], in series [1] (setting [12]), the “Calli with green shoot (%)” value was determined as 0%, the “Number of shoots per callus lump” value is 0 and the “Shoots over 2 mm (%)” value was 0%.
On to `c1coc(CNc2ncnc3[nH]cnc23)c1` [Kinetin, kinetin], for which the entries for the “Number of calli with shoots” value in series [4] (growth regulator 1 mg/L) and in series [4] (growth regulator 4 mg/L) were 8 and 7, respectively. Also, the “Number of shoots over 5 mm” value in series [5] (growth regulator 1 mg/L) and in series [5] (growth regulator 4 mg/L) was 0 each time. Besides, the “Number of shoots per callus lump” value was 3.0 in series [5] (growth regulator 1 mg/L) and 1.7 in series [5] (growth regulator 4 mg/L).
Consider `OC[C@H]1O[C@@](CO)(O[C@H]2O[C@H](CO)[C@@H](O)[C@H](O)[C@H]2O)[C@@H](O)[C@@H]1O` [Sucrose, sucrose], for which, in series [1] (setting [12]), the “Calli with green shoot (%)” value is recorded as 45.3 ± 9.3%, the “Number of shoots per callus lump” value was determined as 4.5 ± 0.1 and the “Shoots over 2 mm (%)” value was 4.5 ± 0.2%.
On to `O=C(Nc1ccccc1)Nc1cnns1` [TDZ, thidiazuron], for which the “Number of calli with shoots” value in series [4] (growth regulator 1 mg/L) came out at 17; in series [4] (growth regulator 4 mg/L) it was 10. Also, the “Number of shoots over 5 mm” value in series [5] (growth regulator 1 mg/L) turned out to be 14; in series [5] (growth regulator 4 mg/L), 1. The “Number of shoots per callus lump” value is 4.8 in series [5] (growth regulator 1 mg/L) and 4.1 in series [5] (growth regulator 4 mg/L). Also, the “Growth of regenerated plants” value in series [5] (high concentration of TDZ) was “severely retarded”. In addition, the “Morphology of regenerated plants” value in series [5] (high concentration of TDZ) is “plants with abnormal morphology were observed at a high frequency”. For the same molecule, in series [5] (only the TDZ included), the “Plant regeneration and further growth” value is on record as “plant regeneration was observed, but the plants did not continue growing”.
